PMC8565515, “Dasabuvir Inhibits Human Norovirus Infection in Human Intestinal Enteroids” (mSphere, 2021)
Where a name gives a salt, the structure may show the parent alone. Read-outs that look alike come from different tables or passages of the source.

Tests used:
[1] = tested on: J2 HIE monolayers; assay: Cytotoxicity by LDH assay in J2 HIE monolayers; details: compound 10 μM, n = 1, LDH assay, J2 HIE monolayers infected with GII.4 HuNoV, 24 hpi, normalized to DMSO control
[2] = tested on: GII.4 HuNoV; assay: GII.4 HuNoV infection of HIE monolayers, viral genome equivalents by RT-qPCR; type: cell-based, human norovirus; details: for activity at 10 µM: Norovirus, 24 h, read-out: (%) HuNoV GEs
[3] = tested on: J2 HIE monolayers
[4] = compound 10 μM, n = 1, J2 HIE monolayers, GII.4 HuNoV, 24 hpi, normalized to DMSO control

Row | SMILES | activity at 10 µM [2, 4] | (%) Cytotoxicity ([3]; human, 24 h, 10 μM) | other results
1 | C[C@H]1CO[C@@H]2Cn3cc(C(=O)NCc4ccc(F)cc4F)c(=O)c(O)c3C(=O)N12 [Cabotegravir] | 54.1% | – | (%) Cytotoxicity [1]: 5.83%
2 | Cc1cnc(C(=O)N[C@H]2CCCCC/C=C\[C@@H]3C[C@@]3(C(=O)NS(=O)(=O)C3CC3)NC(=O)[C@@H]3C[C@@H](Oc4nc5ccccc5c5ccccc45)CN3C2=O)cn1 [Paritaprevir] | 45% | – | (%) Cytotoxicity [1]: -0.33%
3 | CC(C)OC(=O)[C@H](C)N[P@](=O)(OC[C@H]1O[C@@H](n2ccc(=O)[nH]c2=O)[C@](C)(F)[C@@H]1O)Oc1ccccc1 [Sofosbuvir] | 22.6% | – | (%) Cytotoxicity [1]: 0.74%
4 | COC[C@H]1C[C@@H](c2ncc(-c3ccc4c(c3)COc3cc5c(ccc6nc([C@@H]7CC[C@H](C)N7C(=O)[C@@H](NC(=O)OC)C(C)C)[nH]c65)cc3-4)[nH]2)N(C(=O)[C@H](NC(=O)OC)c2ccccc2)C1 [Velpatasvir] | 59.8% | – | (%) Cytotoxicity [1]: 1.45%
5 | O=C(/C=C\n1cnc(-c2cc(C(F)(F)F)cc(C(F)(F)F)c2)n1)NNc1ccccn1 [Verdinexor] | 142% | – | (%) Cytotoxicity [1]: 10.81%
6 | COC(=O)N[C@H](C(=O)NNC[C@H](O)[C@H](Cc1ccccc1)NC(=O)[C@@H](NC(=O)OC)C(C)(C)C)C(C)(C)C [Des(benzylpyridyl) Atazanavi] | – | – | (%) Cytotoxicity [1]: 2.40%; (%) HuNoV GEs [2, 4]: 101.09%
7 | CC(C)=O.COC(=O)N[C@H](C(=O)N1CC2(CC2)C[C@H]1c1ncc(-c2ccc3c(c2)C(F)(F)c2cc(-c4ccc5nc([C@@H]6[C@H]7CC[C@H](C7)N6C(=O)[C@@H](NC(=O)OC)C(C)C)[nH]c5c4)ccc2-3)[nH]1)C(C)C [Ledipasvir acetone] | – | – | (%) Cytotoxicity [1]: 6.17%; (%) HuNoV GEs [2, 4]: 133.29%
8 | O=S(=O)(CCC(F)=C(F)F)c1ncc(Cl)s1 [Fluensulfone] | – | – | (%) Cytotoxicity [1]: -2.22%; (%) HuNoV GEs [2, 4]: 63.19%
9 | Nc1ccn([C@H]2CC[C@@H](CO)O2)c(=O)n1 [Zalcitabine] | 71.5% | 2.88% | –
10 | N[C@@H](CCC(=O)N[C@@H](CS[C@@H]1CCn2ccc(CO)c21)C(=O)NCC(=O)O)C(=O)O [6466-0862] | – | – | (%) Cytotoxicity [3]: -0.22%; (%) HuNoV GEs [2, 4]: 155.85%
11 | CCC[C@H](NC(=O)[C@@H]1[C@H]2CCC[C@H]2CN1C(=O)[C@@H](NC(=O)[C@@H](NC(=O)c1cnccn1)C1CCCCC1)C(C)(C)C)C(=O)C(=O)NC1CC1 [Telaprevir] | 53.2% | 0.86% | –
12 | CO/N=C(\C(=O)N[C@@H]1C(=O)N2C(C(=O)O)=C(C[N+]3(C)CCCC3)CS[C@H]12)c1csc(N)n1 [Cefepime Dihydrochloride Monohydrate] | 116% | 3.73% | –
13 | Cc1cccc(C)c1N(CC(=O)Nc1ccc(-c2ncon2)cc1)C(=O)C1CCS(=O)(=O)CC1 [Amenamevir] | 61.7% | 0.09% | –
14 | O[C@H]1[C@H](O)[C@@H](O)[C@H](O)[C@@H](O)[C@H]1O [Inositol] | 44.9% | 2.88% | –
15 | C=C(C)[C@@H]1CC[C@]2(CO)CC[C@]3(C)[C@H](CC[C@@H]4[C@@]5(C)CC[C@H](O)C(C)(C)[C@@H]5CC[C@]43C)[C@@H]12 [Betulin] | 69.8% | – | (%) Cytotoxicity ([3]; human): 4.24%
16 | CCOCc1nc2c(N)nc3ccccc3c2n1CC(C)(C)O [Resiquimod] | 76.7% | 2.61% | –
17 | Nc1nc(O)c2ncn(COC(CO)CO)c2n1 [Ganciclovir] | 117% | 3.59% | –
18 | CC(C)(C)C(=O)OCOP(=O)(COCCn1cnc2c(N)ncnc21)OCOC(=O)C(C)(C)C [Adefovir dipivoxil] | – | 3.59% | activity at 10 µM [2]: 67.1%
19 | COc1cc(NC(=O)Nc2cccc(CNC(=O)O[C@H]3CCOC3)c2)ccc1-c1cnco1 [Merimepodib] | 17% | 0.74% | –
20 | Cc1cc(F)c(C(=O)Nc2cccc(-c3nncn3C(C)C)n2)cc1-n1cnc(C2CC2)c1 [Selonsertib] | 48.5% | -2.58% | –
21 | O=c1[nH]cc(F)c(=O)[nH]1 [Fluorouracil] | 27.4% | -0.47% | –
22 | C[C@H](Cn1cnc2c(N)ncnc21)OCP(=O)(O)O [Tenofovir] | 56.5% | 0.98% | –
23 | O=c1[nH]c(=O)n([C@H]2C[C@H](O)[C@@H](CO)O2)cc1F [Floxuridine] | 12.6% | 0.65% | –
24 | CC(=O)OCC(CCn1cnc2cnc(N)nc21)COC(C)=O [Famciclovir] | 27.3% | 0.72% | –
25 | O=C(O[C@@H]1Cc2c(O)cc(O)cc2O[C@@H]1c1cc(O)c(O)c(O)c1)c1cc(O)c(O)c(O)c1 [(-)-Epigallocatechin Gallate] | 198% | 2.41% | –
26 | CC1(C)O[C@H]2CC(=O)OC[C@]23[C@H]2CC[C@@]4(C)[C@H](c5ccoc5)OC(=O)[C@H]5O[C@]54[C@]2(C)C(=O)C[C@@H]13 [Limonin] | 59.9% | 0.73% | –

Row | SMILES | activity at 10 µM [2, 4] | (%) Cytotoxicity ([3]; human, 24 h, 10 μM) | other results
27 | CN(C)[C@@H]1C(O)=C(C(N)=O)C(=O)[C@@]2(O)C(O)=C3C(=O)c4c(O)cccc4[C@@](C)(O)[C@H]3[C@H](O)[C@@H]12 [Oxytetracycline] | 46.2% | 3.05% | –
28 | CCOC(=O)CCc1c(C)nc2c(c(C)nn2-c2ccc(C)cc2)c1C [C430-0518] | – | – | (%) Cytotoxicity [3]: -1.01%; (%) HuNoV GEs [2, 4]: 170.30%
29 | CC(C)[C@H](N)C(=O)OCCOCn1cnc2c(=O)[nH]c(N)nc21 [Valacyclovir hydrochloride] | 22.4% | 0.09% | –
30 | CC(C)CN(C[C@@H](O)[C@H](Cc1ccccc1)NC(=O)O[C@H]1CCOC1)S(=O)(=O)c1ccc(N)cc1 [Amprenavir] | 15.9% | -0.21% | –
31 | CO/N=C(\C(=O)N[C@@H]1C(=O)N2C(C(=O)O)=C(COC(C)=O)CS[C@H]12)c1csc(N)n1 [Cefotaxime sodium] | 10.1% | 0.51% | –
32 | Nc1ccn([C@@H]2O[C@H](CO)[C@@H](O)[C@@H]2O)c(=O)n1 [Cytarabine] | 31.3% | -0.77% | –
33 | O=C(O)c1ccccc1C(=O)Nc1ccc(S(=O)(=O)Nc2nccs2)cc1 [Phthalylsulfathiazole] | 44% | 2.05% | –
34 | CC(=O)OCC(=O)[C@@]1(O)CC[C@H]2[C@@H]3CCC4=CC(=O)C=C[C@]4(C)[C@@]3(Cl)[C@@H](Cl)C[C@@]21C [Dichlorisone Acetate] | 59.1% | -1.58% | –
35 | Clc1ccc(COC(Cn2ccnc2)c2ccc(Cl)cc2Cl)c(Cl)c1 (centres unmarked) [Miconazole] | 76.8% | 25.21% | –
36 | COC1=C2C[C@@H](C)C[C@H](OC)[C@H](O)[C@@H](C)/C=C(\C)[C@H](OC(N)=O)[C@@H](OC)/C=C\C=C(/C)C(=O)NC(=CC1=O)C2=O [Geldanamycin] | 18.6% | 67.53% | –
37 | Nc1ccn([C@@H]2CS[C@H](CO)O2)c(=O)n1 [Lamivudine] | 118% | 0.86% | –
38 | CC(C)c1nc(CN(C)C(=O)N[C@H](C(=O)N[C@@H](Cc2ccccc2)C[C@H](O)[C@H](Cc2ccccc2)NC(=O)OCc2cncs2)C(C)C)cs1 [Ritonavir] | 52.7% | 1.11% | –
39 | O=c1[nH]c(=O)n([C@H]2C[C@H](O)[C@@H](CO)O2)cc1C(F)(F)F [Trifluridine] | 77.1% | 0.46% | –
40 | COc1cc2ncnc(Nc3cccc(Cl)c3)c2cc1OC [AG-1478] | – | – | (%) Cytotoxicity [1]: 84.88%
41 | CC(=O)N(CC(O)CO)c1c(I)c(C(=O)NCC(O)CO)c(I)c(C(=O)NCC(O)CO)c1I (centres unmarked) [Iohexol] | 55.3% | 1.11% | –
42 | NCCCNCCCCNCCCN [Spermine] | 116% | 2.77% | –
43 | CCS(=O)(=O)CCn1c([N+](=O)[O-])cnc1C [Tinidazole] | 41% | -0.09% | –
44 | C=CC1=C(C(=O)O)N2C(=O)[C@@H](NC(=O)/C(=N\OCC(=O)O)c3csc(N)n3)[C@H]2SC1 [Cefixime] | 41.9% | 2.28% | –
45 | Nc1nc(=O)n([C@@H]2CS[C@H](CO)O2)cc1F [Emtricitabine] | 55.5% | 2.80% | –
46 | CCOC(=O)c1cccc(NC(=O)CCn2nc(C)c(S(=O)(=O)N3CCCCC3)c2C)c1 [G402-0849] | – | – | (%) Cytotoxicity [3]: 1.12%; (%) HuNoV GEs [2, 4]: 158.24%
47 | OC[C@H]1O[C@@H]2O[C@H]3[C@H](O)[C@@H](O)[C@@H](O[C@H]4[C@H](O)[C@@H](O)[C@@H](O[C@H]5[C@H](O)[C@@H](O)[C@@H](O[C@H]6[C@H](O)[C@@H](O)[C@@H](O[C@H]7[C@H](O)[C@@H](O)[C@@H](O[C@H]8[C@H](O)[C@@H](O)[C@@H](O[C@H]1[C@H](O)[C@H]2O)O[C@@H]8CO)O[C@@H]7CO)O[C@@H]6CO)O[C@@H]5CO)O[C@@H]4CO)O[C@@H]3CO [Beta-Cyclodextrin] | 70.6% | -0.91% | –
48 | C[C@@H]1CC[C@H]2[C@@H](C)C(=O)O[C@@H]3O[C@@]4(C)CC[C@@H]1[C@]32OO4 [Artemisinin] | 51.7% | 1.63% | –
49 | Cc1cn([C@@H]2C[C@@H](O)[C@H](CO)O2)c(=O)[nH]c1=O [Telbivudine] | 70.2% | -0.33% | –
50 | CN(C)c1ccc(C(=C2C=CC(=[N+](C)C)C=C2)c2ccc(N(C)C)cc2)cc1 [Crystal Violet] | 14.5% | 55.49% | –
51 | Clc1ccc(Cn2c(CN3CCCC3)nc3ccccc32)cc1 [Clemizole] | 85.7% | 3.11% | –
